Measurements published in patent EP4796530A1 (Biocells (Beijing) Biotech Co., Ltd., priority 2023, dated 2025).

Columns and labels:
[1] = molecular target: T1, hERG potassium channel (Homo sapiens, UniProt Q12809); experiment: hERG inhibition, automated patch clamp (QPatch 48X) in HEK-293 cells stably expressing hERG; type: cell-based; conditions: HEK-293 cells stably expressing hERG potassium channel, read-out: hERG inhibition rate; for inhibition at 1 µM: pH 7.4, 1 µM; for inhibition at 10 µM: pH 7.4, 10 µM
T1 construct: host or cells: HEK-293 stably expressing hERG
Experimental: The culture temperature was 37 °C, and the carbon dioxide concentration was 5%.
Cell passage: The old medium was removed, and the cells were washed once with PBS. […] Once the cells were detached from the bottom of the dish, approximately 5 mL of complete medium pre-warmed at 37 °C was added. The cell suspension was gently triturated with a pipette to dissociate aggregated cells. The cell suspension was transferred to a sterile centrifuge tube and centrifuged at 1000 rpm for 5 min to collect the cells. For expansion or maintenance, the cells were seeded into 10 cm cell culture dishes at a density of 6×10^5 cells per cell culture dish (final volume: 5 mL).
Medium was added to terminate digestion, followed by centrifugation. The cells were then resuspended and counted. The cell density was adjusted to 2-3×10^6 cells/mL. Subsequently, the cells were gently mixed for 15-20 min on a balance shaker at room temperature, and then loaded for detection.
In this study, the automated patch clamp QPatch 48X (Sophion) system was used for electrophysiological detection.
First, the prepared cells were placed on the centrifuge of the Qpatch workstation. The cells were washed with multiple centrifugation/suspension cycles, and the cell culture medium was replaced with extracellular fluid. One MTP-96 plate was retrieved and placed at the MTP source position. The QPlate chip was retrieved and placed at the QPlate source position. The robotic arm scanned the barcodes of MTP-96 plate and QPlate chip, and transferred them to the measurement station. The intracellular fluid and extracellular fluid were aspirated from the reservoir and added to the intracellular fluid pool and the pool of cell and compound of the QPlate chip, respectively. At the measurement station, all measurement sites on the QPlate experienced initial quality control. The quality control process involved aspirating the cell suspension from the cell container of the centrifuge, positioning the cells onto the chip wells via a pressure controller, and establishing high-resistance seal to form a whole-cell recording mode. Once a stable control current baseline was obtained, the test substances can be sequentially aspirated from the test substance MTP-96 plate in order of concentration and applied to the cells.
The voltage stimulation protocol for whole-cell patch-clamp recording of hERG current was as follows: after the whole-cell seal was formed, the cell membrane voltage was clamped at -80 mV. The clamped voltage was depolarized from -80 mV to -50 mV and maintained for 0.5 s (as leak current detection), then stepped to 30 mV and maintained for 2.5 s, and then rapidly returned to -50 mV and maintained for 4 s, whereby tail current of the hERG channel can be elicited. Data was collected repeatedly every 10 s to observe the effect of the drug on hERG tail current. Experimental data was collected by the QPatch screening workstation and stored in the database server.
For each drug concentration, a two-dose regimen was set for a duration of at least 5 min. For each cell, the current detected in the compound-free extracellular fluid served as self-controls, and two cells were detected in independent replicates. All electrophysiological experiments were conducted at room temperature.
The second of the two dosages was used for data analysis. For each drug concentration, the average of the last three data points prior to the next drug concentration was taken to represent the current value for the drug concentration. The current value representing each drug concentration was normalized against the reference current value used as a blank control, and then the inhibition rate corresponding to each drug concentration was calculated.

[2] = Mouse pharmacokinetics after intravenous administration (plasma and brain, LC-MS); type: in vivo; conditions: C57 mice, intravenous 5 mg/kg; for concentration at 120 min: brain after cardiac perfusion, read-out: brain drug concentration at 120 min; for half-life / AUC: plasma; for AUC: read-out: area under the curve (AUC) from 1 to 120 min
Experimental: C57 mice were administered intravenously, at a dosage concentration of 5 mg/kg in each group. Retro-orbital blood collection was performed on the mice at 1 min, 30 min, 1 h, and 2 h post-dosing. The collected blood was centrifuged at 3000 rpm for 10 min at 4 °C to obtain plasma. Acetonitrile was added at a 1:3 volume ratio of plasma: acetonitrile to precipitate proteins. After centrifugation, the supernatant was collected and filtered. The concentration of the compound was detected using LC-MS (Agilent 1260-G6125, SIM mode). In addition, 2 h after drug injection, the mice were subjected to cardiac perfusion and then their brains were harvested. Following tissue homogenization and centrifugation, the supernatant was collected. Acetonitrile was added at a 1:3 volume ratio of supernatant: acetonitrile to precipitate proteins. After centrifugation, the supernatant was collected and filtered. The concentration of the compound was detected using LC-MS (Agilent 1260-G6125, SIM mode).
Experimental groups: a vehicle control group, and a dosing group.

[3] = molecular target: NLRP3 (Mus musculus, UniProt Q8R4B8); experiment: Inhibition of canonical NLRP3 activation (LPS+ATP/Nig) in J774A.1 cells, IL-1β release by ELISA, single concentration; type: cell-based; set-up: The mouse macrophage cell line J774A.1 was used, and LPS was used as the first signal; host or cells: J774A.1 mouse monocyte-macrophage cell line; conditions: J774.A1, 1 µM compound, LPS + 5 mM ATP or 10 µM Nig, compared with the positive control, read-out: inhibition of IL-1β release
Experimental: J774A.1 cells were plated in a 48-well plate at a density of 1.0×10^6 cells/mL, with 300 µL per well. Subsequently, NLRP3 was activated using LPS+5 mM ATP (adenosine triphosphate) or 10 µM Nig (nigericin). […] ATP was purchased from Sigma, Cat. No.: L2654. Nig was purchased from Shanghai Yuanye Bio-Technology Co., Ltd., Cat. No.: S45490.
Experimental groups: a negative control group, an LPS-alone incubation control group, an LPS+ATP or +Nig positive control group, and an example compound experimental group.
After the plated J774A.1 cells adhering to the plate, the culture medium was replaced. For all the groups except the negative control group, the culture medium was completely replaced with cell culture medium containing 1 µg/mL LPS. The negative control group received cell culture medium. Then, all the groups were incubated overnight. 18 h later, the culture medium was replaced again. The culture medium of the example compound experimental group was completely replaced with cell culture medium containing the compounds; while the negative control group, the LPS-alone incubation control group, and the LPS+ATP/Nig positive control group received cell culture medium. 1 h later, the culture mediums of the LPS+ATP/Nig positive control group and the example compound experimental group were completely replaced with cell culture medium containing 5 mM ATP or 10 µM Nig. 1 h later, the cell supernatants were collected for IL-1β detection.
Therefore, the relative change in the amount of IL-1β release may directly reflect NLRP3 inhibitory effect.

T1 sequence (Q12809 whole entry): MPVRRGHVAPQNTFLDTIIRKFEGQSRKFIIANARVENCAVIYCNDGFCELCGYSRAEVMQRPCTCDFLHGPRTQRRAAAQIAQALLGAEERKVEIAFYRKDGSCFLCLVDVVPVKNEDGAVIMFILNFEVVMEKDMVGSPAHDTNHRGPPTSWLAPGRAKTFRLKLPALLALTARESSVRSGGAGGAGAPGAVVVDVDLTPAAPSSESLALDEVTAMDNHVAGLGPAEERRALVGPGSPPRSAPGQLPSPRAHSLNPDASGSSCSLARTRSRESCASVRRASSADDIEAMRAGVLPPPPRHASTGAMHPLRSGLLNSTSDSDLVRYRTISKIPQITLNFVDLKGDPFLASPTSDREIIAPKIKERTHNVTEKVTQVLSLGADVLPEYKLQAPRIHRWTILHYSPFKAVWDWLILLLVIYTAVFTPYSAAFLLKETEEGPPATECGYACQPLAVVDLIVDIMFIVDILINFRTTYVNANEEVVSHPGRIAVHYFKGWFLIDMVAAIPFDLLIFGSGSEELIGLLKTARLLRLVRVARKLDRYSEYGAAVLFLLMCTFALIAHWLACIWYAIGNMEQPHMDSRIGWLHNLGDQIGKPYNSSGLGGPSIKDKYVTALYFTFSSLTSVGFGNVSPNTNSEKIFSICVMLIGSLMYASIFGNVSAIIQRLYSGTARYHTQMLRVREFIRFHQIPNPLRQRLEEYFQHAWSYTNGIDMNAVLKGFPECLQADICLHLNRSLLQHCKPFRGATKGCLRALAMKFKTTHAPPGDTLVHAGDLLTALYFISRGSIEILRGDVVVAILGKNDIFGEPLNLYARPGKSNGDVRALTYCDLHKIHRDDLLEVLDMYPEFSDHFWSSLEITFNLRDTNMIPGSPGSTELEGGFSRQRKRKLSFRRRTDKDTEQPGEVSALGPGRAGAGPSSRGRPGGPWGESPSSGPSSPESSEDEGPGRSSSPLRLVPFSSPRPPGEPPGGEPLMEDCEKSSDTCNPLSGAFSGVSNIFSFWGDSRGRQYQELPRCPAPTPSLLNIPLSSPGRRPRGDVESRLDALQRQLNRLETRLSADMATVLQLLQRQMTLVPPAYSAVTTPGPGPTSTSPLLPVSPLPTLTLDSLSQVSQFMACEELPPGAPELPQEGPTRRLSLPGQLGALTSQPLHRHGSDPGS
Chain of NLRP3 (Q8R4B8 whole entry): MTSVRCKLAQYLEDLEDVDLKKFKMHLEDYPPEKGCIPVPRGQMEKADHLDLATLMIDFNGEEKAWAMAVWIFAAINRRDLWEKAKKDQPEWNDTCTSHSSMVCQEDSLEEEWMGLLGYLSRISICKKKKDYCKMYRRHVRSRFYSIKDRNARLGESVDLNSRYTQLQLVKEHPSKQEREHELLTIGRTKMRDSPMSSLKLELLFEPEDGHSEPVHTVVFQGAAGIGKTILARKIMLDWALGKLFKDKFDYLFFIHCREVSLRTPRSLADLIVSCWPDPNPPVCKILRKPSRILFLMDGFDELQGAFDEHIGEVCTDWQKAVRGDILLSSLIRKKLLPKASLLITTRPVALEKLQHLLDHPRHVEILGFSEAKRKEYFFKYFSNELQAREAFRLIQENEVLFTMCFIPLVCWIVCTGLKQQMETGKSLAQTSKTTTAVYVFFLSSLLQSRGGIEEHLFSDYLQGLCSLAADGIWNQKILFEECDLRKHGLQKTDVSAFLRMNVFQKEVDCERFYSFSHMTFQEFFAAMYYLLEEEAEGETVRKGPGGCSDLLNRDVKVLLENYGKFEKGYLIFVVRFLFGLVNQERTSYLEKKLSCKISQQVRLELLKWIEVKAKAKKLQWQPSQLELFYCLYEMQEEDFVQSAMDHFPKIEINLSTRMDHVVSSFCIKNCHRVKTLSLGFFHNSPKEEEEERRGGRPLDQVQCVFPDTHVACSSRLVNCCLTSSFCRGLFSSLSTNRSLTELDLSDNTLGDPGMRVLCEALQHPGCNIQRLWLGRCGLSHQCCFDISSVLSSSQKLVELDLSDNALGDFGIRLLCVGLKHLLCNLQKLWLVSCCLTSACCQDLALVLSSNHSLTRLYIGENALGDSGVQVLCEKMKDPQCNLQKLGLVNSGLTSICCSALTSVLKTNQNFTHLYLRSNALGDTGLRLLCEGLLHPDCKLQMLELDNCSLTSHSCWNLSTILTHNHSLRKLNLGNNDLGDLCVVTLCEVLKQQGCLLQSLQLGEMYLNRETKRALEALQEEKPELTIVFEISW

Structure (SMILES): COc1ccc(S(=O)(=O)NC(=O)Nc2c3c(cc4c2CCC4)CCC3)cc1CN(C)C [Example 3, 3-((dimethylamino)methyl)-N-((1,2,3,5,6,7-hexahydro-s-indacen-4-yl)carbamoyl)-4-methoxybenzenesulfonamide]
- inhibition at 1 µM [1]: 0.45%
- inhibition at 10 µM [1]: 1.56%
- concentration at 120 min [2]: 35500 ng/mL
- half-life [2]: 1.05 h
- AUC [2]: 257000 ng·h/mL
- inhibition at 1 µM [3]: > 80%

Structure (SMILES): CN(C)Cc1cc(S(=O)(=O)NC(=O)Nc2c3c(cc4c2CCC4)CCC3)ccc1O [Example 5, 3-((dimethylamino)methyl)-N-((1,2,3,5,6,7-hexahydro-s-indacen-4-yl)carbamoyl)-4-hydroxybenzenesulfonamide]
- inhibition at 1 µM [1]: 0.28%
- inhibition at 10 µM [1]: -0.61%
- concentration at 120 min [2]: 3870 ng/mL
- half-life [2]: 2.3 h
- AUC [2]: 67400 ng·h/mL
- inhibition at 1 µM [3]: > 80%

Structure (SMILES): CN(C)Cc1cccc(S(=O)(=O)NC(=O)Nc2c3c(cc4c2CCC4)CCC3)c1N [Example 19, 2-amino-3-((dimethylamino)methyl)-N-((1,2,3,5,6,7-hexahydro-s-indacen-4-yl)carbamoyl)benzenesulfonamide]
- inhibition at 1 µM [1]: 0.3%
- inhibition at 10 µM [1]: 2.96%
- concentration at 120 min [2]: 242 ng/mL
- half-life [2]: 2.32 h
- AUC [2]: 14700 ng·h/mL
- inhibition at 1 µM [3]: > 80%
